Test results as given in patent US12052991B2, “Substituted pyridinyloxybenzenes and salts thereof and use thereof as herbicidal agents” (Bayer Aktiengesellschaft, priority 2018, dated 2024).

What was measured:
Assay type in all cases: in vivo
[1] = system: Echinochloa crus-galli (ECHCG); assay: Herbicidal post-emergence action (Table B1); conditions: rated visually after about 3 weeks, 100% = plants have died, 0% = like control plants
Method in brief: (§1)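 Greenhouse pot-grown weeds in sandy loam, sprayed at the one-leaf stage (2–3 weeks post-sowing) with WP or EC formulations plus 0.5% additive at 600 l/ha water, at 1280 or 320 g/ha. Visual % activity versus untreated controls rated about 3 weeks later (100% = dead).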

[2] = system: Lolium rigidum (LOLRI); assay: Herbicidal post-emergence action (Table B2); conditions: rated visually after about 3 weeks, 100% = plants have died, 0% = like control plants
Method in brief: as §1

[3] = system: Poa annua (POAAN); assay: Herbicidal post-emergence action (Table B3); conditions: rated visually after about 3 weeks, 100% = plants have died, 0% = like control plants
Method in brief: as §1

[4] = system: Setaria viridis (SETVI); assay: Herbicidal post-emergence action (Table B4); conditions: rated visually after about 3 weeks, 100% = plants have died, 0% = like control plants
Method in brief: as §1

[5] = system: Abutilon theophrasti (ABUTH); assay: Herbicidal post-emergence action (Table B5); conditions: rated visually after about 3 weeks, 100% = plants have died, 0% = like control plants
Method in brief: as §1

[6] = system: Amaranthus retroflexus (AMARE); assay: Herbicidal post-emergence action (Table B6); conditions: visual rating about 3 weeks after treatment, 100% = plants have died, 0% = like control plants
Method in brief: as §1

[7] = system: Stellaria media (STEME); assay: Herbicidal post-emergence action (Table B8); conditions: visual rating about 3 weeks after treatment, 100% = plants have died, 0% = like control plants
Method in brief: as §1

[8] = system: Echinochloa crus-galli (ECHCG); assay: Herbicidal pre-emergence action, test C (Table C1); conditions: visual scoring after about 3 weeks, 100% = plants have died, 0% = like control plants
Method in brief: (§2)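 Compounds formulated as WP or EC were sprayed onto soil covering freshly sown weed seeds at 600 L/ha water with 0.5% additive, at 1280 or 320 g/ha. Pots were kept in a greenhouse. After about 3 weeks, damage was scored visually as % versus untreated controls (100% = plants dead).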

[9] = system: Lolium rigidum (LOLRI); assay: Herbicidal pre-emergence action, test C (Table C2); conditions: visual scoring after about 3 weeks, 100% = plants have died, 0% = like control plants
Method in brief: as §2

[10] = system: Poa annua (POAAN); assay: Herbicidal pre-emergence action, test C (Table C3); conditions: visual scoring after about 3 weeks, 100% = plants have died, 0% = like control plants
Method in brief: as §2

[11] = system: Setaria viridis (SETVI); assay: Herbicidal pre-emergence action, test C (Table C4); conditions: visual scoring after about 3 weeks, 100% = plants have died, 0% = like control plants
Method in brief: as §2

[12] = system: Abutilon theophrasti (ABUTH); assay: Herbicidal pre-emergence action, test C (Table C5); conditions: visual scoring after about 3 weeks, 100% = plants have died, 0% = like control plants
Method in brief: as §2

[13] = system: Amaranthus retroflexus (AMARE); assay: Herbicidal pre-emergence action, test C (Table C6); conditions: visual scoring after about 3 weeks, 100% = plants have died, 0% = like control plants
Method in brief: as §2

[14] = system: Stellaria media (STEME); assay: Herbicidal pre-emergence action, test C (Table C8); conditions: visual scoring after about 3 weeks, 100% = plants have died, 0% = like control plants
Method in brief: as §2

[15] = system: harmful plants ABUTH, AMARE, ECHCG, LOLRI, MATIN, POAAN, SETVI, STEME, ALOMY, DIGSA, KCHSC and VERPE; assay: Herbicidal post-emergence action, summary of Tables B1-B12; conditions: application rate of 1280 or 320 g of active ingredient per hectare; summary in words
Method in brief: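 Greenhouse weeds in sandy loam treated post-emergence at the one-leaf stage, 2–3 weeks after sowing, with WP or EC formulations sprayed with 0.5% additive at 600 L/ha water, 1280 or 320 g/ha. Damage rated visually after about 3 weeks versus untreated controls (0% = like control, 100% = dead).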

[16] = system: harmful plants ABUTH, AMARE, ECHCG, LOLRI, MATIN, POAAN, SETVI, STEME, ALOMY, DIGSA, KCHSC and VERPE; assay: Herbicidal pre-emergence action (test C), summary of Tables C1-C12; conditions: application rate of 1280 or 320 g of active ingredient per hectare; summary in words
Method in brief: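 Pre-emergence pot test in sandy loam: WP or EC formulations were sprayed onto the covering soil with 0.5% additive at 600 L/ha water, at 1280 or 320 g/ha. Plants were kept in the greenhouse, and activity was rated visually about 3 weeks later as % versus untreated controls (100% = dead).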

Row | SMILES | Post-emergence action against Echinochloa crus-galli (ECHCG) ([1]; 320 g/ha) | Post-emergence action against Echinochloa crus-galli (ECHCG) ([1]; 1280 g/ha) | Post-emergence action against Lolium rigidum (LOLRI) ([2]; 320 g/ha) | Post-emergence action against Lolium rigidum (LOLRI) ([2]; 1280 g/ha) | Post-emergence action against Poa annua (POAAN) ([3]; 320 g/ha) | Post-emergence action against Poa annua (POAAN) ([3]; 1280 g/ha) | Post-emergence action against Setaria viridis (SETVI) ([4]; 320 g/ha) | Post-emergence action against Setaria viridis (SETVI) ([4]; 1280 g/ha) | Post-emergence action against Abutilon theophrasti (ABUTH) ([5]; 320 g/ha) | Post-emergence action against Abutilon theophrasti (ABUTH) ([5]; 1280 g/ha) | Post-emergence action against Amaranthus retroflexus (AMARE) ([6]; dosage 320 g/ha) | Post-emergence action against Amaranthus retroflexus (AMARE) ([6]; dosage 1280 g/ha) | Post-emergence action against Stellaria media (STEME) ([7]; dosage 320 g/ha) | Post-emergence action against Stellaria media (STEME) ([7]; dosage 1280 g/ha) | Pre-emergence action against Echinochloa crus-galli (ECHCG) ([8]; dosage 320 g/ha) | Pre-emergence action against Echinochloa crus-galli (ECHCG) ([8]; dosage 1280 g/ha) | Pre-emergence action against Lolium rigidum (LOLRI) ([9]; dosage 1280 g/ha) | Pre-emergence action against Poa annua (POAAN) ([10]; dosage 320 g/ha) | Pre-emergence action against Poa annua (POAAN) ([10]; dosage 1280 g/ha) | Pre-emergence action against Setaria viridis (SETVI) ([11]; dosage 320 g/ha) | other results
1 | Cc1cccc(Oc2ccc(Cl)cn2)c1-c1cc(C(F)F)no1 [Example 1-18, 5-[2-[(5-Chloro-2-pyridyl)oxy]-6-methylphenyl]-3-(difluoromethyl)isoxazole] | 100% | 100% | 90% | 100% | 100% | 100% | 100% | 100% | 100% | 100% | 100% | 100% | 100% | 100% | 90% | 100% | 90% | 90% | 100% | 100% | Pre-emergence action against Setaria viridis (SETVI) ([11]; dosage 1280 g/ha): 100%; Pre-emergence action against Abutilon theophrasti (ABUTH) ([12]; dosage 320 g/ha): 100%; Pre-emergence action against Abutilon theophrasti (ABUTH) ([12]; dosage 1280 g/ha): 100%; Pre-emergence action against Amaranthus retroflexus (AMARE) ([13]; dosage 320 g/ha): 100%; Pre-emergence action against Amaranthus retroflexus (AMARE) ([13]; dosage 1280 g/ha): 100%; Pre-emergence action against Stellaria media (STEME) ([14]; dosage 320 g/ha): 100%; Pre-emergence action against Stellaria media (STEME) ([14]; dosage 1280 g/ha): 100%; herbicidal activity against the harmful plants of Tables B1-B12 in post-emergence treatment [15]: very good herbicidal activity; herbicidal activity against the harmful plants of Tables C1-C12 in pre-emergence treatment [16]: very good herbicidal activity
2 | Fc1cc(Cl)cnc1Oc1cccc(F)c1-c1cc(C(F)F)no1 [Example 1-19] | 100% | 100% | 100% | 100% | 100% | 100% | 100% | 100% | 100% | 100% | 100% | 100% | 100% | 100% | 100% | 100% | 100% | 100% | 100% | 100% | Pre-emergence action against Lolium rigidum (LOLRI) ([9]; dosage 320 g/ha): 100%; Pre-emergence action against Setaria viridis (SETVI) ([11]; dosage 1280 g/ha): 100%; Pre-emergence action against Abutilon theophrasti (ABUTH) ([12]; dosage 320 g/ha): 100%; Pre-emergence action against Abutilon theophrasti (ABUTH) ([12]; dosage 1280 g/ha): 100%; Pre-emergence action against Amaranthus retroflexus (AMARE) ([13]; dosage 320 g/ha): 100%; Pre-emergence action against Amaranthus retroflexus (AMARE) ([13]; dosage 1280 g/ha): 100%; Pre-emergence action against Stellaria media (STEME) ([14]; dosage 320 g/ha): 100%; Pre-emergence action against Stellaria media (STEME) ([14]; dosage 1280 g/ha): 100%; herbicidal activity against the harmful plants of Tables B1-B12 in post-emergence treatment [15]: very good herbicidal activity; herbicidal activity against the harmful plants of Tables C1-C12 in pre-emergence treatment [16]: very good herbicidal activity
